The nature of data set [1]: Physical properties of anhydrate and hydrate (Table 1). The class given is physicochemical. As to the method:
2-Chloro-N-(4′-chlorobiphenyl-2-yl)nicotinamide was obtained at the end of the synthesis as hot xylenic solution. Upon cooling slowly, virtually all of the active ingredient crystallized from xylene. After filtration, residual xylene was removed by drying in a vacuum drying oven, whereby the active ingredient was obtained in the form of the anhydrate. The physical properties are compiled in Table 1.
1 g of 2-chloro-N-(4′-chlorobiphenyl-2-yl)nicotinamide anhydrate was dissolved in 20 ml of THF at 40° C. and the solution was then poured into 20 ml of water. The material which had precipitated was filtered off with suction and dried at 40° C. in a drying oven.
The physical properties of the 2-chloro-N-(4′-chlorobiphenyl-2-yl)nicotinamide monohydrate thus repared are shown in Tabelle 1.

Data set [2] can be described thus: Particle size of the formulation on storage (Malvern Mastersizer). The class given is physicochemical. The following applies: After eight milling passes, Dyno KDL mill. How it is done:
500 g of 2-chloro-N-(4′-chlorobiphenyl-2-yl)nicotinamide monohydrate were combined as described under A with adjuvants. After the mixture had been stirred briefly, it was pumped through a Dyno KDL mill (1.2 mm beads, milling space 1.2 l) at a rate of 2 l/h. The milling process was carried out without problems. No clogging of the mill or crystallization in the receiver was observed. After eight milling passes, a sufficiently fine particle size of 70% <2 μm (Malvern Mastersizer) was achieved, i.e. the particle diameter of 70% of the particles is <2 μm.
The data shown are the percentage of the particles which are smaller than 2 μm.

2 compounds from patent US20040249164A1, “Crystalline hydrates of nicotinic acid anilide and benzoyl anilide derivatives” (priority 2001, published 2004) can be followed below.

SMILES strings stand for the structures.

`O=C(Nc1ccccc1-c1ccc(Cl)cc1)c1cccnc1Cl` [Anhydrate, 2-chloro-N-(4′-chlorobiphenyl-2-yl)nicotinamide] showed a Water content in data set [1] of under 1%. In the case of `O.O=C(Nc1ccccc1-c1ccc(Cl)cc1)c1cccnc1Cl` [Hydrate, 2-chloro-N-(4′-chlorobiphenyl-2-yl)nicotinamide monohydrate], the “particle size, share of particles <2 μm” value in data set [2] amounted to 70 % <2 μm. In addition, in data set [1], the Water content came out at 5%.
